Where a SMILES comes first, the peptide text is derived from it. Bridges are numbered along the chain shown (N, C = ends). [ ]: non-standard residue; d: D form. The star is where a group is joined. Phe(3-CF3) = N[C@@H](Cc1cccc(C(F)(F)F)c1)C(=O)O; Phe(4-CF3) = N[C@@H](Cc1ccc(C(F)(F)F)cc1)C(=O)O; Phe(4-COOH) = N[C@@H](Cc1ccc(C(=O)O)cc1)C(=O)O; Bip = N[C@@H](Cc1ccc(-c2ccccc2)cc1)C(=O)O; NH(CH2)14COOH = O=C(O)CCCCCCCCCCCCCCN*; Phe(3-Me) = Cc1cccc(C[C@H](N)C(=O)O)c1; NH(CH2)12COOH = O=C(O)CCCCCCCCCCCCN*; Val(3-OH) = CC(C)(O)[C@H](N)C(=O)O; Cha = N[C@@H](CC1CCCCC1)C(=O)O; Cit = NC(=O)NCCC[C@H](N)C(=O)O; Carboxymethyl = O=C(O)C*; NMeA = CN[C@@H](C)C(=O)O; Dab = NCC[C@H](N)C(=O)O; CF3 = FC(F)(F)*
target: T1, PD-1/PD-L1 interaction (PE-labeled human PD-L1-Ig binding to Jurkat cell line over-expressing human PD-1) (Homo sapiens, UniProt Q15116); test: Jurkat-PD-1 Cell Binding High-Content Screening Assay (CBA); conditions: PE-labeled PD-L1-Ig 20 nM final, Jurkat-hPD-1 cells; read-out: Jurkat HPD1 PDL1 IC50
T1 construct: expressed in transfected cells; host or cells: Jurkat
T1 sequence (Q15116 25-288): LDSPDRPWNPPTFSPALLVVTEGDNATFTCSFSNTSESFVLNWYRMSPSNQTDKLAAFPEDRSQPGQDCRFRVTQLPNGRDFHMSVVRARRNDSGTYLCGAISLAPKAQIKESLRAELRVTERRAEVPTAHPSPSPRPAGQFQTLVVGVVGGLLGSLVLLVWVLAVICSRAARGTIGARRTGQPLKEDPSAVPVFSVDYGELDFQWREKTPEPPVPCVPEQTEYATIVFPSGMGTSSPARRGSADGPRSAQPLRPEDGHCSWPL
Procedure, shortened: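 Compound is added first to the PD-1-expressing Jurkat cells and held 2 h at 37 °C in serum-containing DMEM. The fluorescent PD-L1 fusion follows at 20 nM final for 1 h. Fixed, Hoechst-stained cells are then imaged for bound label.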

IC50 [nM]	Compound
210	CC(=O)NCCCC[C@@H]1NC(=O)[C@H](C(C)(C)O)NC(=O)[C@H](CC2CCCCC2)NC(=O)[C@H](CCN)NC(=O)[C@@H](CC(C)C)NC(=O)[C@H](C)N(C)C(=O)[C@H](CCC(N)=O)NC(=O)[C@H](Cc2ccc(-c3ccccc3)cc2)NC(=O)[C@H](Cc2ccc(C(F)(F)F)cc2)NC(=O)[C@H](Cc2cccc(C)c2)NC(=O)[C@H](CC(=O)O)NC(=O)[C@H](Cc2ccc(OCC(=O)O)cc2)NC(=O)[C@H](Cc2ccc(OCC(=O)O)cc2)NC(=O)CSC[C@@H](C(=O)N[C@@H](CCN)C(=O)NCCCCCCCCCCCCCCC(=O)O)NC1=O [Example 2618] ({CH2CO}-Y(Carboxymethyl)Y(Carboxymethyl)D[Phe(3-Me)][Phe(4-CF3)][Bip]Q[NMeA][dL][Dab][Cha][Val(3-OH)]K(Ac)C[Dab]-{NH(CH2)14COOH}; thioether N-14)
43.9	CC(=O)NCCCC[C@@H]1NC(=O)[C@H](C(C)(C)O)NC(=O)[C@H](CC2CCCCC2)NC(=O)[C@H](CCN)NC(=O)[C@@H](CC(C)C)NC(=O)[C@H](C)N(C)C(=O)[C@H](CCC(N)=O)NC(=O)[C@H](Cc2ccc(-c3ccccc3)cc2)NC(=O)[C@H](Cc2ccc(C(=O)O)cc2)NC(=O)[C@H](Cc2cccc(C)c2)NC(=O)[C@H](CC(=O)O)NC(=O)[C@H](Cc2ccc(OCC(=O)O)cc2)NC(=O)[C@H](Cc2ccc(C(F)(F)F)cc2)NC(=O)CSC[C@@H](C(=O)N[C@@H](CCN)C(=O)NCCCCCCCCCCCCC(=O)O)NC1=O [Example 2619] ({CH2CO}-[Phe(4-CF3)]Y(Carboxymethyl)D[Phe(3-Me)][Phe(4-COOH)][Bip]Q[NMeA][dL][Dab][Cha][Val(3-OH)]K(Ac)C[Dab]-{NH(CH2)12COOH}; thioether N-14)
72	CC(=O)NCCCC[C@@H]1NC(=O)[C@H](C(C)(C)O)NC(=O)[C@H](CC2CCCCC2)NC(=O)[C@H](CCN)NC(=O)[C@@H](CC(C)C)NC(=O)[C@H](C)N(C)C(=O)[C@H](CCC(N)=O)NC(=O)[C@H](Cc2ccc(-c3ccccc3)cc2)NC(=O)[C@H](Cc2ccc(C(=O)O)cc2)NC(=O)[C@H](Cc2cccc(C)c2)NC(=O)[C@H](CC(=O)O)NC(=O)[C@H](Cc2ccc(OCC(=O)O)cc2)NC(=O)[C@H](Cc2ccc(OC(F)(F)F)cc2)NC(=O)CSC[C@@H](C(=O)N[C@@H](CCN)C(=O)NCCCCCCCCCCCCC(=O)O)NC1=O [Example 2620] ({CH2CO}-Y(CF3)Y(Carboxymethyl)D[Phe(3-Me)][Phe(4-COOH)][Bip]Q[NMeA][dL][Dab][Cha][Val(3-OH)]K(Ac)C[Dab]-{NH(CH2)12COOH}; thioether N-14)
22.4	CC(=O)NCCCC[C@@H]1NC(=O)[C@H](C(C)(C)O)NC(=O)[C@H](CC2CCCCC2)NC(=O)[C@H](CCN)NC(=O)[C@@H](CC(C)C)NC(=O)[C@H](C)N(C)C(=O)[C@H](CCC(N)=O)NC(=O)[C@H](Cc2ccc(-c3ccccc3)cc2)NC(=O)[C@H](Cc2ccc(C(F)(F)F)cc2)NC(=O)[C@H](Cc2cccc(C)c2)NC(=O)[C@H](CC(=O)O)NC(=O)[C@H](Cc2ccc(OCC(=O)O)cc2)NC(=O)[C@H](Cc2ccc(OCC(=O)O)cc2)NC(=O)CSC[C@@H](C(=O)N[C@@H](CCN)C(=O)NCCCCCCCCCCCCC(=O)O)NC1=O [Example 2621] ({CH2CO}-Y(Carboxymethyl)Y(Carboxymethyl)D[Phe(3-Me)][Phe(4-CF3)][Bip]Q[NMeA][dL][Dab][Cha][Val(3-OH)]K(Ac)C[Dab]-{NH(CH2)12COOH}; thioether N-14)
83.9	CC(=O)NCCCC[C@@H]1NC(=O)[C@H](C(C)(C)O)NC(=O)[C@H](CC2CCCCC2)NC(=O)[C@H](CCN)NC(=O)[C@@H](CC(C)C)NC(=O)[C@H](C)N(C)C(=O)[C@H](CCC(N)=O)NC(=O)[C@H](Cc2ccc(-c3ccccc3)cc2)NC(=O)[C@H](Cc2ccc(OCC(=O)O)cc2)NC(=O)[C@H](Cc2cccc(C(F)(F)F)c2)NC(=O)[C@H](CC(=O)O)NC(=O)[C@H](Cc2ccc(OCC(=O)O)cc2)NC(=O)[C@H](Cc2ccc(C(F)(F)F)cc2)NC(=O)CSC[C@@H](C(=O)N[C@@H](CCN)C(=O)NCCCCCCCCCCCCC(=O)O)NC1=O [Example 2622] ({CH2CO}-[Phe(4-CF3)]Y(Carboxymethyl)D[Phe(3-CF3)]Y(Carboxymethyl)[Bip]Q[NMeA][dL][Dab][Cha][Val(3-OH)]K(Ac)C[Dab]-{NH(CH2)12COOH}; thioether N-14)
99.4	CC(=O)NCCCC[C@@H]1NC(=O)[C@H](C(C)(C)O)NC(=O)[C@H](CC2CCCCC2)NC(=O)[C@H](CCN)NC(=O)[C@@H](CC(C)C)NC(=O)[C@H](C)N(C)C(=O)[C@H](CCCNC(N)=O)NC(=O)[C@H](Cc2ccc(-c3ccccc3)cc2)NC(=O)[C@H](Cc2ccc(OCC(=O)O)cc2)NC(=O)[C@H](Cc2cccc(C(F)(F)F)c2)NC(=O)[C@H](CC(=O)O)NC(=O)[C@H](Cc2ccc(OCC(=O)O)cc2)NC(=O)[C@H](CCN)NC(=O)CSC[C@@H](C(=O)N[C@@H](CCN)C(=O)NCCCCCCCCCCCCCCC(=O)O)NC1=O [Example 2623] ({CH2CO}-[Dab]Y(Carboxymethyl)D[Phe(3-CF3)]Y(Carboxymethyl)[Bip][Cit][NMeA][dL][Dab][Cha][Val(3-OH)]K(Ac)C[Dab]-{NH(CH2)14COOH}; thioether N-14)
77	CC(=O)NCCCC[C@@H]1NC(=O)[C@H](C(C)(C)O)NC(=O)[C@H](CC2CCCCC2)NC(=O)[C@H](CCN)NC(=O)[C@@H](CC(C)C)NC(=O)[C@H](C)N(C)C(=O)[C@H](CCCNC(N)=O)NC(=O)[C@H](Cc2ccc(-c3ccccc3)cc2)NC(=O)[C@H](Cc2ccc(OCC(=O)O)cc2)NC(=O)[C@H](Cc2cccc(C(F)(F)F)c2)NC(=O)[C@H](CC(=O)O)NC(=O)[C@H](Cc2ccc(OCC(=O)O)cc2)NC(=O)[C@H](Cc2ccc(OCC(=O)O)cc2)NC(=O)CSC[C@@H](C(=O)N[C@@H](CCN)C(=O)NCCCCCCCCCCCCCCC(=O)O)NC1=O [Example 2624] ({CH2CO}-Y(Carboxymethyl)Y(Carboxymethyl)D[Phe(3-CF3)]Y(Carboxymethyl)[Bip][Cit][NMeA][dL][Dab][Cha][Val(3-OH)]K(Ac)C[Dab]-{NH(CH2)14COOH}; thioether N-14)
190	CC(C)C[C@H]1NC(=O)[C@H](C)N(C)C(=O)[C@H](CCCNC(N)=O)NC(=O)[C@H](Cc2ccc(-c3ccccc3)cc2)NC(=O)[C@H](Cc2ccc(OCC(=O)O)cc2)NC(=O)[C@H](Cc2cccc(C(F)(F)F)c2)NC(=O)[C@H](CC(=O)O)NC(=O)[C@H](Cc2ccc(OCC(=O)O)cc2)NC(=O)[C@H](Cc2ccc(OCC(=O)O)cc2)NC(=O)CSC[C@@H](C(=O)N[C@@H](CCN)C(=O)NCCCCCCCCCCCCCCC(=O)O)NC(=O)[C@H](CCC(=O)O)NC(=O)[C@H](C(C)(C)O)NC(=O)[C@H](CC2CCCCC2)NC(=O)[C@H](CCN)NC1=O [Example 2625] ({CH2CO}-Y(Carboxymethyl)Y(Carboxymethyl)D[Phe(3-CF3)]Y(Carboxymethyl)[Bip][Cit][NMeA][dL][Dab][Cha][Val(3-OH)]EC[Dab]-{NH(CH2)14COOH}; thioether N-14)
